The values that follow come from patent US12338484B2, “FRET biosensor for detecting and reporting NAD+/NADH ratio changes” (Sartorius BioAnalytical Instruments, Inc., priority 2022, dated 2025).

Holding throughout (type): biochemical
What all share (design): key: Good response: Constructs with very clear and robust spectra separation; Poor response: those with noticeable but small spectra separation; No response: those having no spectra separation

For test [1], the target named is T1, Thermus aquaticus T-Rex FRET fusion, initial construct #1, mKOk-Rex(78-189)-cpmEGFP(145/146)-Rex(190-211)-Rex(78-211), SEQ ID NO: 161 (Thermus aquaticus, UniProt Q9X2V5, INS189[…]).
T1 construct: His-tag purified from E. coli (pET28c)
The test is described as follows: FRET response (emission spectra) of purified initial construct #1 in absence or presence of 40 uM NADH. Here is the method:
(§1) 16 initial FRET constructs (See Table 3) were constructed using expression vector pET28c with a T7 promoter and lac operator and expressed in E. coli. Cells were collected and lysed using a commercially-available lysis buffer. Proteins of interest were isolated from the lysates using Ni-NTA magnetic beads. Eluted proteins were subjected to buffer exchange and final protein concentrating. To test performance of the initial FRET constructs, their emission spectra was recorded on a plate reader in absence or presence of 40 uM NADH. Resulting emission spectra with or without the ligand were normalized and overlaid for each construct. Constructs with very clear and robust spectra separation were labeled as having “good response”, those with noticeable but small spectra separation were labeled as having “poor response”, and finally those having no spectra separation were labeled as having “no response”.

For test [2], the target named is T2, Thermus aquaticus T-Rex FRET fusion, initial construct #2, Rex(78-189)-cpmEGFP(145/146)-Rex(190-211)-Rex(78-211)-mKOk, SEQ ID NO: 162 (Thermus aquaticus, UniProt Q9X2V5, INS189[…]).
T2 construct: His-tag purified from E. coli
Briefly: FRET response (emission spectra) of purified initial construct #2 in absence or presence of 40 uM NADH. Here is the method:
as §1

The target in test [3] is T3, Thermus aquaticus T-Rex FRET fusion, initial construct #3, mKOk-Rex(78-211)-Rex(78-189)-cpmEGFP(145/146)-Rex(190-211), SEQ ID NO: 163 (Thermus aquaticus, UniProt Q9X2V5, INS189[…]).
T3 construct: His-tag purified from E. coli
Briefly: FRET response (emission spectra) of purified initial construct #3 in absence or presence of 40 uM NADH. Here is the method: as §1

Test [4] has as its target T4, Thermus aquaticus T-Rex FRET fusion, initial construct #4, Rex(78-211)-Rex(78-189)-cpmEGFP(145/146)-Rex(190-211)-mKOk, SEQ ID NO: 164 (Thermus aquaticus, UniProt Q9X2V5, INS189[…]).
T4 construct: His-tag purified from E. coli
Briefly: FRET response (emission spectra) of purified initial construct #4 in absence or presence of 40 uM NADH. Here is the method: as §1

The target in test [5] is T5, Thermus aquaticus T-Rex FRET fusion, initial construct #5, mKOk-Rex(78-189)-cpmEGFP(173/174)-Rex(190-211)-Rex(78-211), SEQ ID NO: 165 (Thermus aquaticus, UniProt Q9X2V5, INS189[…]).
T5 construct: His-tag purified from E. coli
Briefly: FRET response (emission spectra) of purified initial construct #5 in absence or presence of 40 uM NADH. Here is the method: as §1

Test [6] has as its target T6, Thermus aquaticus T-Rex FRET fusion, initial construct #6, Rex(78-189)-cpmEGFP(173/174)-Rex(190-211)-Rex(78-211)-mKOk, SEQ ID NO: 166 (Thermus aquaticus, UniProt Q9X2V5, INS189[…]).
T6 construct: His-tag purified from E. coli
The test is described as follows: FRET response (emission spectra) of purified initial construct #6 in absence or presence of 40 uM NADH. Here is the method:
as §1

Test [7] deals with T7, Thermus aquaticus T-Rex FRET fusion, initial construct #7, mKOk-Rex(78-211)-Rex(78-189)-cpmEGFP(173/174)-Rex(190-211), SEQ ID NO: 167 (Thermus aquaticus, UniProt Q9X2V5, INS189[…]).
T7 construct: His-tag purified from E. coli
Briefly: FRET response (emission spectra) of purified initial construct #7 in absence or presence of 40 uM NADH. Here is the method:
as §1

Test [8] addresses T8, Thermus aquaticus T-Rex FRET fusion, initial construct #8, Rex(78-211)-Rex(78-189)-cpmEGFP(173/174)-Rex(190-211)-mKOk, SEQ ID NO: 168 (Thermus aquaticus, UniProt Q9X2V5, INS189[…]).
T8 construct: His-tag purified from E. coli
The test is described as follows: FRET response (emission spectra) of purified initial construct #8 in absence or presence of 40 uM NADH. Here is the method: as §1

For test [9], the target named is Thermus aquaticus T-Rex FRET fusion, initial construct #12, Rex(A)-cpmEGFP(173/174)-Rex(B)-mKOk, SEQ ID NO: 172 (Thermus aquaticus, UniProt Q9X2V5, E116G/F189I/K117M/K204T/K47E/R46D/R58D/S30A/Y98W). The test is described as follows: FRET response (emission spectra) of purified initial construct #12 in absence or presence of 40 uM NADH. Here is the method: as §1
In test [10] the target is Thermus aquaticus T-Rex FRET fusion, initial construct #13, mKOk-Rex(A)-mEGFP-Rex(B), SEQ ID NO: 173 (Thermus aquaticus, UniProt Q9X2V5, E116G/F189I/K117M/K204T/K47E/R46D/R58D/S30A/Y98W). The test is described as follows: FRET response (emission spectra) of purified initial construct #13 in absence or presence of 40 uM NADH. Here is the method: as §1
The target in test [11] is Thermus aquaticus T-Rex FRET fusion, initial construct #14, Rex(A)-mEGFP-Rex(B)-mKOk, SEQ ID NO: 174 (Thermus aquaticus, UniProt Q9X2V5, E116G/F189I/K117M/K204T/K47E/R46D/R58D/S30A/Y98W). The test is described as follows: FRET response (emission spectra) of purified initial construct #14 in absence or presence of 40 uM NADH. Here is the method:
as §1

`NC(=O)C1=CN([C@@H]2O[C@H](COP(=O)(O)OP(=O)(O)OC[C@H]3O[C@@H](n4cnc5c(N)ncnc54)[C@H](O)[C@@H]3O)[C@@H](O)[C@H]2O)C=CC1` [NADH]: the “FRET response to NADH” value in test [1] was “No response”; in test [2], “Poor response”; in [3], “No response”; in test [4], “No response”; in [5], “No response”; in [6] it was “No response”. Besides, the “FRET response to NADH” value in test [7] is “No response”; in test [8], “No response”; in test [9] it was “Good response”; in [10], “Poor response”; in test [11], “Good response”.
